Results taken from US20230227505A1, “IDENTIFICATION AND APPLICATION OF ALV-J MHC-B2 R[…] PEPTIDE” (South China Agricultural University, priority 2022, published 2023).

Tested on: spleen lymphocytes of B2-haplotype chicken infected with ALV-J
Experiment: IFN-γ ELISpot assay detecting immunogenicity of candidate peptides
Assay type: cell-based
Settings: peptide 10 μg/mL as stimulant, spleen lymphocytes of B2-haplotype chicken infected for 28 d; for IFN-γ ELISpot spots generated compared with the negative control group: 24-48 h; for IFN-γ ELISpot spots, significance versus negative control (immunogenic T cell epitope): P<0.05, three independent replications
Method: The B2-haplotype chicken infected for 28 d (day) in 2.1 is taken, and the spleen lymphocytes of the chicken are isolated according to the kit instructions of the chicken organ tissue mononuclear cell isolation solution, and an ELISpot assay is performed to detect the immunogenicity of candidate peptide epitopes. The specific steps are as follows:
(1) PVDF 96-well plate activation: 15 μL 35% ethanol is added to each well for reaction for less than 1 min, and then the wells are washed five times with sterile water.
(2) Antibody coating: the anti-chicken IFN-γ is diluted to 15 μg/mL, and 100 μL of that is added to each well, and the mixture is incubated at 4° C. overnight.
(3) Blocking: the coating solution is discarded, followed by washing 5 times with DPBS, and the plate is dried on the sterilized absorbent paper. RMPI 1640 medium containing 10% FBS is added to PVDF 96-well plate at 200 μL/well and the reaction is blocked at room temperature for 30 min.
(4) Stimulation: the blocking solution is discarded and 100 μL of prepared lymphocyte suspension at the concentration of 5*10^6 cells/mL is added to each well. At the same time, 50 μL diluted antigenic peptide is added to the experimental group at the final concentration of 10 μg/mL, PMA at the final concentration of 10 μg/mL is added to the positive control group, and no irritant is added to the negative control group. After all the samples are added, PVDF 96-well plate is placed in CO2 incubator at 37° C. for 24-48 h.
(5) Incubation of secondary antibody: after the culture, the cells are shaken off and the plate is washed five times with DPBS. Then 100 μL biotinylated secondary antibody with a concentration of 1 μg/mL is added to each well and the plate is incubated for 2 h at room temperature.
(6) HRP incubation: the secondary antibody solution is discarded and washed with DPBS for 5 times. Then 100 μL streptavidin-labeled HRP is added to the well and incubated at room temperature for 1 h.
(7) Color development: the HRP incubation solution is discarded and the plate is washed with DPBS for 5 times. Then 100 μL TMB color-developing substrate is added to each well followed by incubation at room temperature or 37° C. for 15-30 min. When obvious spots appeared in the positive control group, the color-developing solution could be discarded. the color development is stopped with pure water and the plate is read after air drying.

Row | Sequence | IFN-γ ELISpot spots generated compared with the negative control group | IFN-γ ELISpot spots, significance versus negative control (immunogenic T cell epitope)
1 | FVDFANRLI (ALV-J-59) | could generate spots | significantly produce more spots
2 | SALQAFREV (ALV-J-61) | could generate spots | significantly produce more spots
3 | TVDTASSAI (ALV-J-52) | could generate spots | significantly produce more spots
